From patent publication US20230165866A1, “CYCLOSERINE AND PENTOXIFYLLINE COMBINATION THERAPY FOR TREATMENT OF DEPRESSION” (NEURORIVE INC, priority 2020, published 2023)

What was measured:
[1] = tested on: mice (C57BL/6); test: Forced swimming test (FST); type: in vivo, mouse; conditions: C57BL/6 mice, oral; DCS alone 10 mg/kg, pentoxifylline alone 80 mg/kg, combination DCS 10 mg/kg + pentoxifylline 10, 20, 80, 160 mg/kg; FST an hour after administration; immobility time in last 4 min of 6 min
Protocol: In order to test an effect of reducing depression depending on administration of the composite composition of the present invention, mice were performed to a forced swimming test (FST). The FST, which is to measure a coping strategy for acute stress that inevitably occurs, is an animal behavioral experiment commonly used to measure antidepressant effects. To confirm the effect of reducing depression by combined administration of D-cycloserine (DCS) and pentoxifylline (Pen), each group of mice was administered orally with the vehicle (DW 5 ml/kg), DCS (administered alone at 10 mg/kg), pentoxifylline (administered alone at 80 mg/kg) and DCS+pentoxifylline (DCS 10 mg/kg and pentoxifylline 10, 20, 80, 160 mg/kg combination treatment group). After administration, the forced swimming test (FST) that measures depression-like behavior was performed on the mice. Specifically, each mice group (C57BL/6) was individually placed in a 3 L Pyrex beaker (13 cm in diameter, 24 cm in height), and the beakers were filled with 26° C. of water up to a depth of 9 cm. All mice were forced to swim for 6 minutes, and immobility time was measured for the last 4 minutes of the experiment. The immobility time is defined as the […] time taken while the mouse is floating without struggling or taking only the movement required for keeping the mouse's head above the water surface.

[2] = tested on: mice (C57BL6); test: Tail suspension test (TST); type: in vivo, mouse; conditions: DCS alone 10 mg/kg, pentoxifylline alone 80 mg/kg, combination DCS 10 mg/kg + pentoxifylline 10, 20, 80, 160 mg/kg, TST 1 hour after administration, immobility time over 6 min
Description: In order to test an effect of reducing depression depending on administration of the composite composition of the present invention, mice were subjected to a tail suspension test (TST). The TST, which is to measure a stress in a rodent animal model, is based on the behavior of an experimental animal facing immobile posture in the face of short-term, irreversible stress. In the technical field of the present invention, the TST is used to measure the effect of antidepressant. To confirm the effect of reducing depression by combined administration of D-cycloserine (DCS) and pentoxifylline (Pen), DCS, Pen alone or a composite composition were administered to all groups of mice (C57BL6). Each group of mice was administered with the vehicle (DW 5 ml/kg), DCS (administered alone at 10 mg/kg), pentoxifylline (administered alone at 80 mg/kg), and DCS+pentoxifylline (DCS 10 mg/kg and pentoxifylline 10, 20, 80, 160 mg/kg combination treatment group). After 1 hour, the tail suspension test (TST) that measures depression-like behavior was performed on the mice. […] The experiment started as soon as the mouse was hung, and the immobility time was measured for 6 minutes after the start of the experiment. […]

Row | Structure (SMILES) | immobility in FST compared to the control group administered with the vehicle [1] | immobility in TST compared to the control group administered with the vehicle [2]
1 | N[C@@H]1CONC1=O [DCS, D-cycloserine] | did not show significantly different in immobility | did not show statistical significance
2 | CC(=O)CCCCn1c(=O)c2c(ncn2C)n(C)c1=O [pentoxifylline] | did not show significantly different in immobility | did not show statistical significance
